# Test results taken from PMC9898036, “VIP152 is a selective CDK9 inhibitor with pre-clinical in vitro and in vivo efficacy in chronic lymphocytic leukemia” (Leukemia, 2022).
# Assays:
# [1] = molecular target: BRK (Homo sapiens, UniProt Q13882); assay: KINOMEscan: BRK; format: binding; conditions: 1000 nM, read-out: Percent Control
# [2] = molecular target: IKK-epsilon (Homo sapiens, UniProt Q14164); assay: KINOMEscan: IKK-epsilon; format: binding; conditions: 1000 nM, read-out: Percent Control
# [3] = molecular target: TRKB (Homo sapiens, UniProt Q16620); assay: KINOMEscan: TRKB; format: binding; conditions: 100 nM, read-out: Percent Control
# TRKB, sequence (Q16620 32-822): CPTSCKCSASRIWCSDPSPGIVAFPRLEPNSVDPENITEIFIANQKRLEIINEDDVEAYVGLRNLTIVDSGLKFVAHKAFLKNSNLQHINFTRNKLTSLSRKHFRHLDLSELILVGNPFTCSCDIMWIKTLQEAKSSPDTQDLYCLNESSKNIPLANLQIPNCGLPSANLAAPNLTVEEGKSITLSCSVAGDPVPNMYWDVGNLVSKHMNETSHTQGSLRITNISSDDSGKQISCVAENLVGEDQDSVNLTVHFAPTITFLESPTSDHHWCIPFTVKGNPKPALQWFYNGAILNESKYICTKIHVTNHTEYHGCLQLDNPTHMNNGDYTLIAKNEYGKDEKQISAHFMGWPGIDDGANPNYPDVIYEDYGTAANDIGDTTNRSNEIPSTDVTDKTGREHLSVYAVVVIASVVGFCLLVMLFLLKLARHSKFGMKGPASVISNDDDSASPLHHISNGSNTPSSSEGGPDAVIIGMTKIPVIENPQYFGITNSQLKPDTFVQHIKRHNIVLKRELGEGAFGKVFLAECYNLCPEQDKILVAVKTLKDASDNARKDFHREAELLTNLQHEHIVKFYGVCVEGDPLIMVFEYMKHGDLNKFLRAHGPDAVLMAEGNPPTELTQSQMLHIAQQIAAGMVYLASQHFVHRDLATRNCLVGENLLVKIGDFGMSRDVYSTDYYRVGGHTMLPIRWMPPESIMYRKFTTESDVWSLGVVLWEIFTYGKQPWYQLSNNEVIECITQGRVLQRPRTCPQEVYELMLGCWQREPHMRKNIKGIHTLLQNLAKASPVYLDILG
# [4] = molecular target: ZAP70 (Homo sapiens, UniProt P43403); assay: KINOMEscan: ZAP70; format: binding; conditions: 100 nM, read-out: Percent Control
# ZAP70, sequence (P43403 whole entry): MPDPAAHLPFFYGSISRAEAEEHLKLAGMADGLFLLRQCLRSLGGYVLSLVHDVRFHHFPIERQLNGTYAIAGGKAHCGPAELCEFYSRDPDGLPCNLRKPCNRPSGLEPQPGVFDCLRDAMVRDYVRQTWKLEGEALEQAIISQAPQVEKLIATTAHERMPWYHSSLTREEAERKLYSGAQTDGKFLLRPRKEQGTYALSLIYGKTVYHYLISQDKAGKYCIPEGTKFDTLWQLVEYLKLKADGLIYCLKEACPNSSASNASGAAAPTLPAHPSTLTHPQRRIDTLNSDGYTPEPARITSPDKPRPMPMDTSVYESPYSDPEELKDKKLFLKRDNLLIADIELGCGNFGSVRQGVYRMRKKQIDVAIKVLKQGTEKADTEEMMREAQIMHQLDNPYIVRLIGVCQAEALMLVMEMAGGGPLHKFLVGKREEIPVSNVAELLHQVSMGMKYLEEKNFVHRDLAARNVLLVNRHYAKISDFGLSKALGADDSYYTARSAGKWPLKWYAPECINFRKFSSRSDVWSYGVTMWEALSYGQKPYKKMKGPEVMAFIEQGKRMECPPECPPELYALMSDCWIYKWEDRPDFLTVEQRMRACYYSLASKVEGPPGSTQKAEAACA
# [5] = molecular target: JNK3 (Homo sapiens, UniProt P53779); assay: KINOMEscan: JNK3; format: binding; conditions: 1000 nM, read-out: Percent Control
# [6] = molecular target: AKT2 (Homo sapiens, UniProt P31751); assay: KINOMEscan: AKT2; format: binding; conditions: 1000 nM, read-out: Percent Control
# [7] = molecular target: DCAMKL2 (Homo sapiens, UniProt Q8N568); assay: KINOMEscan: DCAMKL2; format: binding; conditions: 1000 nM, read-out: Percent Control
# [8] = tested on: primary CLL samples with human stromal cell line (HS-5) co-culture; assay: Annexin V/PI flow cytometry, four-hour treatment with washout, HS-5 stromal co-culture; format: cell-based; conditions: relapse/refractory samples; four-hour exposure, after 24 h
# [9] = molecular target: TNK1 (Homo sapiens, UniProt Q13470); assay: KINOMEscan: TNK1; format: binding; conditions: 100 nM, read-out: Percent Control
# [10] = molecular target: TRPM6 (Homo sapiens, UniProt Q9BX84); assay: KINOMEscan: TRPM6; format: binding; conditions: 100 nM, read-out: Percent Control
# [11] = molecular target: INSRR (Homo sapiens, UniProt P14616); assay: KINOMEscan: INSRR; format: binding; conditions: 1000 nM, read-out: Percent Control
# [12] = molecular target: SRC (Homo sapiens, UniProt P12931); assay: KINOMEscan: SRC; format: binding; conditions: 100 nM, read-out: Percent Control
# [13] = molecular target: BRAF(V600E) (Homo sapiens, UniProt P15056, V600E); assay: KINOMEscan: BRAF(V600E); format: binding; conditions: 1000 nM, read-out: Percent Control
# [14] = molecular target: ROCK1 (Homo sapiens, UniProt Q13464); assay: KINOMEscan: ROCK1; format: binding; conditions: 100 nM, read-out: Percent Control
# [15] = molecular target: TYK2(JH2domain-pseudokinase) (Homo sapiens, UniProt P29597); assay: KINOMEscan: TYK2(JH2domain-pseudokinase); format: binding; conditions: 100 nM, read-out: Percent Control
# [16] = molecular target: Interleukin IL-1 (Mus musculus, UniProt P13504); assay: Eurofins Diversity Panel; format: binding; conditions: Conc. 10 μM
# [17] = molecular target: SgK110 (Homo sapiens, UniProt P0C264); assay: KINOMEscan: SgK110; format: binding; conditions: 100 nM, read-out: Percent Control
# [18] = molecular target: WEE2 (Homo sapiens, UniProt P0C1S8); assay: KINOMEscan: WEE2; format: binding; conditions: 100 nM, read-out: Percent Control
# [19] = molecular target: FLT3(D835V) (Homo sapiens, UniProt P36888, D835V); assay: KINOMEscan: FLT3(D835V); format: binding; conditions: 1000 nM, read-out: Percent Control
# [20] = molecular target: VEGFR2 (Homo sapiens, UniProt P35968); assay: KINOMEscan: VEGFR2; format: binding; conditions: 100 nM, read-out: Percent Control
# [21] = molecular target: VRK2 (Homo sapiens, UniProt Q86Y07); assay: KINOMEscan: VRK2; format: binding; conditions: 100 nM, read-out: Percent Control
# [22] = tested on: Sodium Channel, Site 2; assay: Eurofins Diversity Panel; format: binding; conditions: rat, Conc. 10 μM
# [23] = molecular target: ARK5 (Homo sapiens, UniProt O60285); assay: KINOMEscan: ARK5; format: binding; conditions: 1000 nM, read-out: Percent Control
# ARK5, sequence (O60285 whole entry): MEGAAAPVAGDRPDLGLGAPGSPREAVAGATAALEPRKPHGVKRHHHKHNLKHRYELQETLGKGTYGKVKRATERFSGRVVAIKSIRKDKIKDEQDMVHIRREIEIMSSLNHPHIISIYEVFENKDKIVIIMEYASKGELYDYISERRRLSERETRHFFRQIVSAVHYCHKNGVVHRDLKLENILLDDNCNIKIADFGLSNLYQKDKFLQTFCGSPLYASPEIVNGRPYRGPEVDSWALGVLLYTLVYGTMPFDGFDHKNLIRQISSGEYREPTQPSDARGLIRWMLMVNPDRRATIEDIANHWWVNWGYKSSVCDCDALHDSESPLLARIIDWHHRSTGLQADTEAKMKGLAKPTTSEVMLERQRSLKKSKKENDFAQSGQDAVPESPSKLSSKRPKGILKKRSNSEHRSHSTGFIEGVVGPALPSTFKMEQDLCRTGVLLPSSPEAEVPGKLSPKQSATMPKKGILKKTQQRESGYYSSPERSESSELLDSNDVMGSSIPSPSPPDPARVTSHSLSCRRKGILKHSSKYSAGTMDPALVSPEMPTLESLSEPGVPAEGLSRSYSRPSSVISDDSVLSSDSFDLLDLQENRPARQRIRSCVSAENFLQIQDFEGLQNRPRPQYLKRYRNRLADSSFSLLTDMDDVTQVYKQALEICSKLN
# [24] = molecular target: ICK (Homo sapiens, UniProt Q9UPZ9); assay: KINOMEscan: ICK; format: binding; conditions: 1000 nM, read-out: Percent Control
# ICK, sequence (Q9UPZ9 whole entry): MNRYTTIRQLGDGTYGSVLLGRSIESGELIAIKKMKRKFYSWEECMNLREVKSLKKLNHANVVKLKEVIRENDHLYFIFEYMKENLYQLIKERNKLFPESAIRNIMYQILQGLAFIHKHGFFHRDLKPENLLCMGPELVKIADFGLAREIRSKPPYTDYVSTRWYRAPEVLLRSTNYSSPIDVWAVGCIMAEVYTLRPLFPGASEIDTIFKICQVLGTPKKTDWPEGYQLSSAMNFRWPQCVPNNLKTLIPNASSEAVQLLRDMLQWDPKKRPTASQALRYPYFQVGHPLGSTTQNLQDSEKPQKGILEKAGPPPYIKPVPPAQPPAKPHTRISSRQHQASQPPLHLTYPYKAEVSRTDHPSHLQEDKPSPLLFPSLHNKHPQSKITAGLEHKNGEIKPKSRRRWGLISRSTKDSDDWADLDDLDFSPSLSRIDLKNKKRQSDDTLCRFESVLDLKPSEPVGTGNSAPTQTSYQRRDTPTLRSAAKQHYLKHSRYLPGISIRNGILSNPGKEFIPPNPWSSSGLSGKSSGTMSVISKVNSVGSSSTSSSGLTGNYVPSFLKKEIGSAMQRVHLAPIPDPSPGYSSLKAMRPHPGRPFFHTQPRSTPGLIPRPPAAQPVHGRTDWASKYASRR
# [25] = molecular target: YANK2 (Homo sapiens, UniProt Q9NY57); assay: KINOMEscan: YANK2; format: binding; conditions: 100 nM, read-out: Percent Control
# [26] = molecular target: ULK1 (Homo sapiens, UniProt O75385); assay: KINOMEscan: ULK1; format: binding; conditions: 100 nM, read-out: Percent Control
# [27] = molecular target: TXK (Homo sapiens, UniProt P42681); assay: KINOMEscan: TXK; format: binding; conditions: 100 nM, read-out: Percent Control
# TXK, sequence (P42681 whole entry): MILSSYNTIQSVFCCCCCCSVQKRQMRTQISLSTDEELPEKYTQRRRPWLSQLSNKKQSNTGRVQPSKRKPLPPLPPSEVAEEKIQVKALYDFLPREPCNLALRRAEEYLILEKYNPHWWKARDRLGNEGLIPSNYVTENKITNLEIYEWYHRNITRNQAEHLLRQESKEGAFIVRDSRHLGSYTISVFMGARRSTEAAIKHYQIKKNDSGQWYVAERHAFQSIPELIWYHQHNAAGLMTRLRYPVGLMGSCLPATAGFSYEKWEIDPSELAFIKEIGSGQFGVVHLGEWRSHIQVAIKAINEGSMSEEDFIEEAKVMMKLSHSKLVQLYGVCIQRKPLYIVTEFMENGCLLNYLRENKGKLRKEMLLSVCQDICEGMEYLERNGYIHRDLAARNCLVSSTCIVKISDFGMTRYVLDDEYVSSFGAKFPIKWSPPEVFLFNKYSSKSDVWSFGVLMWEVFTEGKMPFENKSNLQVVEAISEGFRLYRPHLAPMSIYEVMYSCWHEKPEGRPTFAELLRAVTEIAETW
# [28] = molecular target: T1, CDK9 in complex with Cyclin K (Homo sapiens, UniProt P50750); assay: HotSpot radiometric kinase assay; format: biochemical; conditions: 10-dose series from 0.5 nM to 10 µM; vs dinaciclib, KB-0742, atuveciclib
# T1 construct: host or cells: HEK293
# T1 sequence (P50750 whole entry): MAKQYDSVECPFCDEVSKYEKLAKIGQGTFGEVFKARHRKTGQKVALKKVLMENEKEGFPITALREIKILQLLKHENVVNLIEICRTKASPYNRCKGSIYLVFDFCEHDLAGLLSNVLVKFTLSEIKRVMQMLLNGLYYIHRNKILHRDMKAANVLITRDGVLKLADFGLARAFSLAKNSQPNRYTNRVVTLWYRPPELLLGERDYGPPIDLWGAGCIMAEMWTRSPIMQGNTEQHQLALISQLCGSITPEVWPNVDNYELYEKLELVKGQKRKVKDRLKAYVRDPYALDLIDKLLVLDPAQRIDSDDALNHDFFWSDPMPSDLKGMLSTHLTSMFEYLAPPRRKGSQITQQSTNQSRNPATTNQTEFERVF
# T1 sequence (O75909 whole entry partner): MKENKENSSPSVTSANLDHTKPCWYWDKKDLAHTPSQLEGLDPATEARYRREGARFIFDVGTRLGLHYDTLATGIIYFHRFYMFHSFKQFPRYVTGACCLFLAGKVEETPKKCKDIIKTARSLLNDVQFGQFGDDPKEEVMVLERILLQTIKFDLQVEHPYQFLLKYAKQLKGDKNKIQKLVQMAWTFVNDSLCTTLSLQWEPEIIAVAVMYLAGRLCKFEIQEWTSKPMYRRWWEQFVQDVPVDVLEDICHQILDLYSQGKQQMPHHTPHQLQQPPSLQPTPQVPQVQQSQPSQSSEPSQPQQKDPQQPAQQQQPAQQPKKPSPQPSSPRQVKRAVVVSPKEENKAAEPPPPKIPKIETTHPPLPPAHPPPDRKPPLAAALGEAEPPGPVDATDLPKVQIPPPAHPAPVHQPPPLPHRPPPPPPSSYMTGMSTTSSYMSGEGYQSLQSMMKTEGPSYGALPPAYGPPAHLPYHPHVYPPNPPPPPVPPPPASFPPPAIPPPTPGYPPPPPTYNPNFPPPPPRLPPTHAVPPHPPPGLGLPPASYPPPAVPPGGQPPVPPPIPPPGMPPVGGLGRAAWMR
# Experimental: We next compared VIP152 to other CDK inhibitors currently in development. […] The compounds were tested in a 10-dose series from 0.5 nM to 10 µM against CDK9 in complex with Cyclin T1/T2/K, CDK7/Cyclin H, and GSK3α/β. […]
# HotSpot Kinase Assay Protocol
# Compounds tested via HotSpot Kinase Assay were sent to ReactionBio for the experiment. The […]
# Kinase substrate was added to reaction buffer (20 mM Hepes (pH 7.5), 10 mM MgCl2, 1 mM EGTA, 0.01% Brij35, 0.02 mg/ml BSA, 0.1 mM Na3VO4, 2 mM DTT, 1% DMSO). Cofactors and kinases were gently added to the reaction buffer. Compounds to be tested were dissolved in 100% DMSO and were delivered into the kinase reaction mixture by Acoustic technology (Echo550; nanoliter range) and incubated for 20 min at room temperature. 32P-ATP was delivered into the reaction mixture and the reaction was allowed to proceed for 2 hours. Kinase activity was detected by P81 filter-binding method.
# [29] = molecular target: CSNK1D (Homo sapiens, UniProt P48730); assay: KINOMEscan: CSNK1D; format: binding; conditions: 1000 nM, read-out: Percent Control
# [30] = molecular target: FGFR4 (Homo sapiens, UniProt P22455); assay: KINOMEscan: FGFR4; format: binding; conditions: 1000 nM, read-out: Percent Control
# FGFR4, sequence (P22455 22-802): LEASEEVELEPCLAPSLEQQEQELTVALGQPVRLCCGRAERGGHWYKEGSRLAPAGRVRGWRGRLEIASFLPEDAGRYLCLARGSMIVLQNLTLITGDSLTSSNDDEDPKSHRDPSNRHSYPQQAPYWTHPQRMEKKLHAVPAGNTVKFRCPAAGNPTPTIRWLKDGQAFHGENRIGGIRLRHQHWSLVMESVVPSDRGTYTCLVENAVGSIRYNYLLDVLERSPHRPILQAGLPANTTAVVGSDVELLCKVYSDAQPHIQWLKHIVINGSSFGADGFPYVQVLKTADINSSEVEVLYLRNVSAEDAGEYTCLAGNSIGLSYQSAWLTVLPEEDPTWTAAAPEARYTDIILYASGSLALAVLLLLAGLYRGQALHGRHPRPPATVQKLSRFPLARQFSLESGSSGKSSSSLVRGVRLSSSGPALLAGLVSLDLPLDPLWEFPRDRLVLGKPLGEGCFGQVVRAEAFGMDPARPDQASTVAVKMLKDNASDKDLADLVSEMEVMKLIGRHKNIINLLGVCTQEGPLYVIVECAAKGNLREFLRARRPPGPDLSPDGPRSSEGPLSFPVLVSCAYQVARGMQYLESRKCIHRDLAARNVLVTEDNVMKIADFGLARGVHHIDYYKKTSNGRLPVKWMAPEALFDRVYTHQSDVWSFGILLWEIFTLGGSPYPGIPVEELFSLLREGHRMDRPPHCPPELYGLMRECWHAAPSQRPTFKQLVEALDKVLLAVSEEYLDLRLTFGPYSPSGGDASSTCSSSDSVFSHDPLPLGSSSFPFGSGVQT
# [31] = molecular target: Adrenergic β1 (Homo sapiens, UniProt P08588); assay: Eurofins Diversity Panel; format: binding; conditions: hum, Conc. 10 μM
smiles,measurement,setting,value
COc1cc(F)ccc1-c1cc(Nc2cc(CS(C)(=N)=O)ccn2)ncc1F (stereo not shown) [VIP152],remaining binding at 1 µM,[1],79%
same,remaining binding at 1 µM,[2],51%
same,remaining binding at 0.1 µM,[3],100%
same,remaining binding at 0.1 µM,[4],99%
same,remaining binding at 1 µM,[5],82%
same,remaining binding at 1 µM,[6],100%
same,remaining binding at 1 µM,[7],96%
same,apoptosis and stromal protection,[8],induce significant apoptosis after 24 h and overcome stromal protection
same,remaining binding at 0.1 µM,[9],100%
same,remaining binding at 0.1 µM,[10],100%
same,remaining binding at 1 µM,[11],85%
same,remaining binding at 0.1 µM,[12],100%
same,remaining binding at 1 µM,[13],92%
same,remaining binding at 0.1 µM,[14],100%
same,remaining binding at 0.1 µM,[15],100%
same,inhibition at 10 µM,[16],-5%
same,remaining binding at 0.1 µM,[17],100%
same,remaining binding at 0.1 µM,[18],100%
same,remaining binding at 1 µM,[19],15%
same,remaining binding at 0.1 µM,[20],89%
same,remaining binding at 0.1 µM,[21],97%
same,% Inh.,[22],26%
same,remaining binding at 1 µM,[23],100%
same,remaining binding at 1 µM,[24],9%
same,remaining binding at 0.1 µM,[25],71%
same,remaining binding at 0.1 µM,[26],93%
same,remaining binding at 0.1 µM,[27],100%
same,potency versus the other inhibitors tested,[28],higher potency
same,remaining binding at 1 µM,[29],94%
same,remaining binding at 1 µM,[30],76%
same,inhibition at 10 µM,[31],-7%
